Experimental findings from EP0716856B1, “Therapeutic uses of 2',5'-oligoadenylate derivatives” (Temple University of the Commonwealth System of Higher …, priority 1988, dated 1989) are described below.

For this assay, the target named is T1, HIV-1 reverse transcriptase (Human immunodeficiency virus type 1 group M subtype B, UniProt P04585).
T1 construct: used as a source of HIV-1 reverse transcriptase; endogenous in cells; host or cells: Virions pelleted from conditioned supernatant of H9 cells infected with HTLV-IIIB, lysed with Triton X-100
Put plainly: Inhibition of HIV-1 reverse transcriptase activity in vitro (viral lysate, poly(A).(dT)15 template-primer, [3H]dTTP incorporation). Type of assay: biochemical. The conditions noted are these: Concentration 400 micromolar; 37°C, 1 h; read-out: Percent Inhibition. Here is the method: Reverse Transcriptase Assays. Virus was concentrated from cell-free ([…]) conditioned H9/HTLV-IIIB culture supernatants by centrifugation at 18,000 r.p.m. for 4 h at 20°C in a Beckman JA-20 rotor. A viral pellet obtained from 50 ml of conditioned culture fluid was dissolved in 0.5 mL of a solution containing 17 mM Tris-HCl (pH 7.8), 3mM dithiothreitol (DTT), 55 mM KC1, 0.32% w/v Triton X-100, and 33% glycerol. This viral lysate was stored at -20°C and was used as a source of HIV-1 reverse transcriptase. Reverse transcriptase reactions were performed in 100 µL reaction volumes containing 40 mM Tris-HC1 (pH 7.8), 4 mM DTT, 50 mM KCl, 10 mM MgCl2, 0.0325% w/v Triton X-100, 3 micromolar [^33H]dTTP (80 Ci/mmol,NEN) and poly (A).(dT)15 (2.5 microgram/mL) template-primer after the addition of 10 microliter enzyme. Inhibitors were added at various concentrations after adjusting water volumes so that reaction volumes remained constant. Reactions were incubated at 37°C for 1 h in a humidified environment and terminated by adding 2 mL of 10% cold trichloroacetic acid. Precipitate was collected on 0.45 µm cellulose-acetate Millipore filters which were then dissolved in 10 mL of 3a70B aqueous scintillant and the counts per minute quantitated using a Beckman LS 6800 liquid scintillation spectrometer.

In general, inhibition refers to the change of the read-out against control, counted positive when it falls. As to `Nc1ncnc2c1ncn2[C@@H]1O[C@H](CO)[C@@H](O)[C@H]1O` [(adenosine) A, adenosine], the inhibition at 400 µM worked out at 0%. As to `Nc1ncnc2c1ncn2[C@@H]1O[C@H](CO)C[C@H]1O` [cordycepin (C), 3'-deoxyadenosine], the inhibition at 400 µM is 0%.
